Source: ChEMBL document CHEMBL3621069 (Bioorg Med Chem Lett, 2015)
Each block holds one compound with its values, some of them ahead of it.

What was measured:
Aurora kinase B = Aurora kinase B (Homo sapiens, UniProt Q96GD4); test: Inhibition of Aurora B kinase (unknown origin) pre-incubated for 30 mins at room temperature before substrate addition and measured 1 hr after substrate addition by cell free kinase assay
[1] = biological target: Proto-oncogene tyrosine-protein kinase receptor Ret (Homo sapiens, UniProt P07949); test: Inhibition of human RET pre-incubated for 30 mins at room temperature before substrate addition and measured 1 hr after substrate addition by cell free kinase assay
[2] = biological target: Mitogen-activated protein kinase kinase kinase 9 (Homo sapiens) (UniProt P80192); test: Inhibition of human MLK1 at 0.1 uM
[3] = biological target: Mitogen-activated protein kinase kinase kinase 9 (Homo sapiens) (UniProt P80192); test: Inhibition of human MLK1 at 0.01 uM
[4] = Apparent permeability from apical to basolateral side in human Caco2 cells; assay type: ADME, cell-based; settings: Caco-2
[5] = Inhibition of CYP450 (unknown origin); assay type: ADME, Homo sapiens
[6] = biological target: Voltage-gated inwardly rectifying potassium channel KCNH2 (Homo sapiens, UniProt Q12809); test: Inhibition of human ERG by manual patch clamp assay
Salmonella typhimurium [7] = test: Genotoxicity in Salmonella typhimurium TA98 at 5000 µg/plate in absence of liver S9 fraction by Ames test; assay type: toxicity, organism-based; settings: salmonella enterica subsp. enterica serovar typhimurium
Salmonella typhimurium [8] = test: Genotoxicity in Salmonella typhimurium TA1535 at 5000 µg/plate in presence of liver S9 fraction by Ames test; assay type: toxicity, organism-based; settings: salmonella enterica subsp. enterica serovar typhimurium
Salmonella typhimurium [9] = test: Genotoxicity in Salmonella typhimurium TA1535 at 5000 µg/plate in absence of liver S9 fraction by Ames test; assay type: toxicity, organism-based; settings: salmonella enterica subsp. enterica serovar typhimurium
Salmonella typhimurium [10] = test: Genotoxicity in Salmonella typhimurium TA1537 at 5000 µg/plate in absence of liver S9 fraction by Ames test; assay type: toxicity, organism-based; settings: salmonella enterica subsp. enterica serovar typhimurium
Escherichia coli [11] = test: Genotoxicity in Escherichia coli WP2 uvrA at 5000 µg/plate in absence of liver S9 fraction by Ames test; assay type: toxicity, organism-based
Escherichia coli [12] = test: Mutagenicity in Escherichia coli WP2 uvrA at 5000 µg/plate in absence of liver S9 fraction by Ames test; assay type: toxicity, organism-based
[13] = Clearance in dog at 5 mg/kg, iv; assay type: ADME, organism-based, Canis lupus familiaris; settings: in vivo
[14] = Volume of distribution at steady state in dog at 5 mg/kg, iv; assay type: ADME, organism-based, Canis lupus familiaris; settings: in vivo, read-out: Vdss
[15] = Half life in dog at 5 mg/kg, iv; assay type: ADME, organism-based, Canis lupus familiaris; settings: in vivo
[16] = AUClast in dog at 5 mg/kg, iv; assay type: ADME, organism-based, Canis lupus familiaris; set-up: dose 5 mg/kg, time 0 - last, route intravenous; settings: in vivo
[17] = AUClast in dog at 10 mg/kg, po; assay type: ADME, organism-based, Canis lupus familiaris; set-up: dose 10 mg/kg, route oral, time 0 - last; settings: in vivo
[18] = Oral bioavailability in dog at 10 mg/kg; assay type: ADME, organism-based, Canis lupus familiaris; settings: in vivo
Mus musculus [19] = test: Anti-arthritic activity in DBA1/J mouse model of collagen-induced arthritis assessed as reduction in arthritis clinical scores at 10 mg/kg, po administered orally continued once daily and twice daily through study; assay type: functional
Mus musculus [20] = test: Anti-arthritic activity in DBA1/J mouse model of collagen-induced arthritis assessed as reduction in arthritis clinical scores at 30 mg/kg, po administered orally continued once daily and twice daily through study; assay type: functional
[21] = system: Tyrosine-protein kinase ABL1 (Homo sapiens), P00519 [Q252H]; test: Inhibition of human Abl Q252H mutant at 0.1 uM
[22] = system: Epidermal growth factor receptor (Homo sapiens), P00533 [T790M]; test: Inhibition of human EGFR T790M mutant at 0.1 uM; assay type: protein assay
Epidermal growth factor receptor (Homo sapiens), P00533 [T790M], sequence (P00533 whole entry T790M): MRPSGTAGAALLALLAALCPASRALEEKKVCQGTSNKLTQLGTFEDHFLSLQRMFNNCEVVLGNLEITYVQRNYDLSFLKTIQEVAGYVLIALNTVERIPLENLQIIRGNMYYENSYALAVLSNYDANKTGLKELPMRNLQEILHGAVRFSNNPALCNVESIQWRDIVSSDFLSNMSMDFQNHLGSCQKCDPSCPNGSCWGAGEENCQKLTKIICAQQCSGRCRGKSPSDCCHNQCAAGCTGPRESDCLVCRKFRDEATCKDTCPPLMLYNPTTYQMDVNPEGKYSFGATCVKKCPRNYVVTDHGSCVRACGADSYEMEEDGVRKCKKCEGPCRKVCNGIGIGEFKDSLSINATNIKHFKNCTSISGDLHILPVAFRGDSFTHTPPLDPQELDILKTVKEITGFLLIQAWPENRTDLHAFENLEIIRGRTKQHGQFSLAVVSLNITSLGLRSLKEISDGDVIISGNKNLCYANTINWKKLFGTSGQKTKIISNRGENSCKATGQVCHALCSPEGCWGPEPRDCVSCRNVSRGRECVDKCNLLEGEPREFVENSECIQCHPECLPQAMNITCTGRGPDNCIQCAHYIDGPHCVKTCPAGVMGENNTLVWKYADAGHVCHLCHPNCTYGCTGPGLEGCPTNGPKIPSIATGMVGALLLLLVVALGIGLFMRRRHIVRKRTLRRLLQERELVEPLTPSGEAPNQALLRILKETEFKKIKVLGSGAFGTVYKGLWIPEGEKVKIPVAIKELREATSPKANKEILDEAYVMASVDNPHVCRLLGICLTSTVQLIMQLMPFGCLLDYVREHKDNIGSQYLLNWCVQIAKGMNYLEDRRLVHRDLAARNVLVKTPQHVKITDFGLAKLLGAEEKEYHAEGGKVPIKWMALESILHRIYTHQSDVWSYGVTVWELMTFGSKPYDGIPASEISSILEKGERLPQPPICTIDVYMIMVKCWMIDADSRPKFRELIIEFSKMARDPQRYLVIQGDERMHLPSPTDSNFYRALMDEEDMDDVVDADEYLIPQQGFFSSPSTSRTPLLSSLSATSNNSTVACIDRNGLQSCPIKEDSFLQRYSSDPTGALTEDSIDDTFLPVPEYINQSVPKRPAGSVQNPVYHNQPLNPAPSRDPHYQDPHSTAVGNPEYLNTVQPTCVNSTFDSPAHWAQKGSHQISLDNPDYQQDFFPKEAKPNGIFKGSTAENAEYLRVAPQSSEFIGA

[23] = system: Epidermal growth factor receptor (Homo sapiens), P00533 [L858R,T790M]; test: Inhibition of human EGFR T790M/L858R mutant at 0.1 uM; assay type: protein assay
Epidermal growth factor receptor (Homo sapiens), P00533 [L858R,T790M], sequence (P00533 whole entry T790M/L858R, looked up): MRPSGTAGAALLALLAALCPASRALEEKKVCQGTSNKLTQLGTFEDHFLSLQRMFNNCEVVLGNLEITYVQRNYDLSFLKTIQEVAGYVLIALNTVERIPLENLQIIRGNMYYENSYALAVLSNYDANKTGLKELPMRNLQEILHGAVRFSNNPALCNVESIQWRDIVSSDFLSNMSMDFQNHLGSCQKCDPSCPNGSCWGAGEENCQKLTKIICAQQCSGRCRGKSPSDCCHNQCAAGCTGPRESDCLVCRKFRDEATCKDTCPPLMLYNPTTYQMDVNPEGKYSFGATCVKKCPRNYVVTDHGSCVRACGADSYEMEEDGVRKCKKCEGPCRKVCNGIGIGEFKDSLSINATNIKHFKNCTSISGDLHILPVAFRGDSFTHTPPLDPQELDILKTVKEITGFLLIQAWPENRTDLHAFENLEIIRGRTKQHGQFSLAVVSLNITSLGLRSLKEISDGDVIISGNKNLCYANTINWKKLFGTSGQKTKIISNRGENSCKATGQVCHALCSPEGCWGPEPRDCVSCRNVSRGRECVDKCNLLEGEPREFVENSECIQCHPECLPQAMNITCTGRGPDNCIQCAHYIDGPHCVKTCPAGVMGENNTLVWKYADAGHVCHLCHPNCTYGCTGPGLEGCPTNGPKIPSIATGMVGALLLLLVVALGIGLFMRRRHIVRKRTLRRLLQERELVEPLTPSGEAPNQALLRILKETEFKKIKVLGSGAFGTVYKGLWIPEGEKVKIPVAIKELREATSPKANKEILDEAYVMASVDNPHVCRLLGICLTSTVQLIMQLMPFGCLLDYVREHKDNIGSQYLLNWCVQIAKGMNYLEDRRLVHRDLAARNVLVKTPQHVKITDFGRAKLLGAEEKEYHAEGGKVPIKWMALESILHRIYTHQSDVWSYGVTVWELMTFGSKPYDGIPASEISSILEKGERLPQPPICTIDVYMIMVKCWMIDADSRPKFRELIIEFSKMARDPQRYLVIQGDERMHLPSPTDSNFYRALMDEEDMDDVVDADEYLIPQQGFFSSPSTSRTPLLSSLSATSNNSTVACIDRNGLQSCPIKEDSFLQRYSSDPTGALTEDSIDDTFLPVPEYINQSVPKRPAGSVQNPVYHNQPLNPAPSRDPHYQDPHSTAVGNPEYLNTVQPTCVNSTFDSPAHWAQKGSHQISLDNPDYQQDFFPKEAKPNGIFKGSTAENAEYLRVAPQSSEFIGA

[24] = system: Receptor-type tyrosine-protein kinase FLT3 (Homo sapiens), P36888 [D835Y]; test: Inhibition of human Flt3 D835Y mutant at 0.1 uM
[25] = biological target: Serine/threonine-protein kinase PLK3 (Homo sapiens) (UniProt Q9H4B4); test: Inhibition of human Plk3 at 0.1 uM
Serine/threonine-protein kinase PLK3 (Homo sapiens), sequence (Q9H4B4 whole entry, looked up): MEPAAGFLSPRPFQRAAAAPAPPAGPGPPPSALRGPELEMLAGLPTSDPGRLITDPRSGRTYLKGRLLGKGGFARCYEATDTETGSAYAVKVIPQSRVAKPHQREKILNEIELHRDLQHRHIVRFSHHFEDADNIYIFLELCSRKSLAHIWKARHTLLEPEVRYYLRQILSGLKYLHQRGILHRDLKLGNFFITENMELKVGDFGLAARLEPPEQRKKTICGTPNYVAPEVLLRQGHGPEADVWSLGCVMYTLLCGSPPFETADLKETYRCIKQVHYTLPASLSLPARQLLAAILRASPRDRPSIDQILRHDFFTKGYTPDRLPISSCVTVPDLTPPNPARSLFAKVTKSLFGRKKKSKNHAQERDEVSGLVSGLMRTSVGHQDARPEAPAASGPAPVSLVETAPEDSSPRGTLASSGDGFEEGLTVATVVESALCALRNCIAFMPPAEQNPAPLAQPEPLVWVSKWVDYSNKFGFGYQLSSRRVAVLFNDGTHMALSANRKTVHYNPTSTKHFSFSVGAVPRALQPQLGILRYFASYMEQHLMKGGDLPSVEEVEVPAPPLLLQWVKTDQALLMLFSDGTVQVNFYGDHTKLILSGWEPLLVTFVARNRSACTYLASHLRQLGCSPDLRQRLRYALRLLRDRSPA

[26] = biological target: Tyrosine-protein kinase Fgr (Homo sapiens) (UniProt P09769); test: Inhibition of human Fgr at 0.1 uM
[27] = biological target: Tyrosine-protein kinase Fyn (Homo sapiens) (UniProt P06241); test: Inhibition of human Fyn (unknown origin) at 0.1 uM
[28] = biological target: Tyrosine-protein kinase Lck (Homo sapiens) (UniProt P06239); test: Inhibition of human Lck at 0.1 uM
[29] = biological target: Tyrosine-protein kinase Lyn (Homo sapiens) (UniProt P07948); test: Inhibition of human Lyn at 0.1 uM
[30] = biological target: Tyrosine-protein kinase Yes (Homo sapiens) (UniProt P07947); test: Inhibition of human Yes at 0.1 uM
[31] = biological target: Proto-oncogene tyrosine-protein kinase Src (Homo sapiens) (UniProt P12931); test: Inhibition of human Src (1 to 530 residues) at 0.1 uM
[32] = system: Proto-oncogene tyrosine-protein kinase Src (Homo sapiens), P12931 [T341M]; test: Inhibition of human Src T341M mutant at 0.1 uM
[33] = biological target: Tyrosine-protein kinase HCK (Homo sapiens) (UniProt P08631); test: Inhibition of human Hck at 0.1 uM
Tyrosine-protein kinase HCK (Homo sapiens), sequence (P08631 2-526 limits assumed): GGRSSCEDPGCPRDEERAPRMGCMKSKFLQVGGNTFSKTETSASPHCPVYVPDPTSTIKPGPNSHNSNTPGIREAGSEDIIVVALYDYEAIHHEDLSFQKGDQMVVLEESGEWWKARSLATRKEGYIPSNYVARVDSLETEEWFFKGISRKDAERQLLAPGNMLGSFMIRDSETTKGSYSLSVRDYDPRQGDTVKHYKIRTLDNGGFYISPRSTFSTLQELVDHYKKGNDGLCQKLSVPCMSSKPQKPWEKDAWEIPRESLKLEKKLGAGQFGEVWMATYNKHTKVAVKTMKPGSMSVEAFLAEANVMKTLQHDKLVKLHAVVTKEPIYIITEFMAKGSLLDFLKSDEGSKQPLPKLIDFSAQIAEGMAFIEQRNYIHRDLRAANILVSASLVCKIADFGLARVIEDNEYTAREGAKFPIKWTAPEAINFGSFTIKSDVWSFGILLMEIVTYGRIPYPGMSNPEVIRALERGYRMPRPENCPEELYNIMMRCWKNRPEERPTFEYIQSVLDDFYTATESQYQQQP

[34] = biological target: Tyrosine-protein kinase Blk (Homo sapiens) (UniProt P51451); test: Inhibition of human Blk at 0.1 uM
[35] = system: Tyrosine-protein kinase ABL1 (Homo sapiens), P00519 [Q252H]; test: Inhibition of human Abl Q252H mutant at 0.01 uM
[36] = system: Epidermal growth factor receptor (Homo sapiens), P00533 [T790M]; test: Inhibition of human EGFR T790M mutant at 0.01 uM; assay type: protein assay
[37] = system: Epidermal growth factor receptor (Homo sapiens), P00533 [L858R,T790M]; test: Inhibition of human EGFR T790M/L858R mutant at 0.01 uM; assay type: protein assay
[38] = system: Receptor-type tyrosine-protein kinase FLT3 (Homo sapiens), P36888 [D835Y]; test: Inhibition of human Flt3 D835Y mutant at 0.01 uM
[39] = biological target: Serine/threonine-protein kinase PLK3 (Homo sapiens) (UniProt Q9H4B4); test: Inhibition of human Plk3 at 0.01 uM
[40] = system: Proto-oncogene tyrosine-protein kinase receptor Ret (Homo sapiens), P07949 [V804L]; settings: 0.1 uM
Proto-oncogene tyrosine-protein kinase receptor Ret (Homo sapiens), P07949 [V804L], sequence (P07949 whole entry V804L): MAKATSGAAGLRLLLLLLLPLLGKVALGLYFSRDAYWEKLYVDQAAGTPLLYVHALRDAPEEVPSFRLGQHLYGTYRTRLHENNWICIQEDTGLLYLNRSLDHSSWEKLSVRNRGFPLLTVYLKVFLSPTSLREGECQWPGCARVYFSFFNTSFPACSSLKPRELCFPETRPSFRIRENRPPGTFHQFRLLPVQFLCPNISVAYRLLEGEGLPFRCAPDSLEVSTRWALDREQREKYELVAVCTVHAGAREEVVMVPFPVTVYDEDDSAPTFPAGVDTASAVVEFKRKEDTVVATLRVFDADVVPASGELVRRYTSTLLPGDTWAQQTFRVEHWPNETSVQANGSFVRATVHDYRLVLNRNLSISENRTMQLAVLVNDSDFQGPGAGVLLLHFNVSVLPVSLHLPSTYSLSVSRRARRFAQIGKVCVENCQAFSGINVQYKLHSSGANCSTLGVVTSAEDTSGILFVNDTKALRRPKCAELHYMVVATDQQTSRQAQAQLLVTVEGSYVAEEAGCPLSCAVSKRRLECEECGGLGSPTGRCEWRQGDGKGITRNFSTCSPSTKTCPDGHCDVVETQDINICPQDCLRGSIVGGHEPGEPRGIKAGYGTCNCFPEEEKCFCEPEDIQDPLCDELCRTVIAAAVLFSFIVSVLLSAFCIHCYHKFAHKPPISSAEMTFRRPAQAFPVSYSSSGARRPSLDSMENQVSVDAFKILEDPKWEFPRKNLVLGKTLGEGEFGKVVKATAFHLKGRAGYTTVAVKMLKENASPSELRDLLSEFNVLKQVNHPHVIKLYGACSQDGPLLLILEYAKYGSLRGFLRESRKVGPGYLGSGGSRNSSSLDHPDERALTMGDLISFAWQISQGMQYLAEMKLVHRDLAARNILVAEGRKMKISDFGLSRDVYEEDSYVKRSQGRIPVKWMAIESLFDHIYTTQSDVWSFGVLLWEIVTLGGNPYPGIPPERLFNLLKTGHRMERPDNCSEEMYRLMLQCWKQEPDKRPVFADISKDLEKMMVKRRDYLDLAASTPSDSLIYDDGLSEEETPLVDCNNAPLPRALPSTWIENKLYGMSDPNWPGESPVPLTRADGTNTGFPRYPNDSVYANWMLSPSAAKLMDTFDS
Description: Inhibition of human Ret V804L mutant at 0.1 uM

[41] = system: Proto-oncogene tyrosine-protein kinase receptor Ret (Homo sapiens), P07949 [V804M]; settings: 0.1 uM
Proto-oncogene tyrosine-protein kinase receptor Ret (Homo sapiens), P07949 [V804M], sequence (P07949 whole entry V804M): as the sequence (P07949 whole entry V804L) above, with L804M counted along it
Description: Inhibition of human Ret V804M mutant at 0.1 uM

[42] = system: Proto-oncogene tyrosine-protein kinase receptor Ret (Homo sapiens), P07949 [V804L]; settings: 0.01 uM
Description: Inhibition of human Ret V804L mutant at 0.01 uM

[43] = system: Proto-oncogene tyrosine-protein kinase receptor Ret (Homo sapiens), P07949 [V804M]; settings: 0.01 uM
Description: Inhibition of human Ret V804M mutant at 0.01 uM

[44] = biological target: T1, Tyrosine-protein kinase SYK (Homo sapiens, UniProt P43405); test: Inhibition of purified full-length human SYK pre-incubated for 30 mins at room temperature before Ulight-TK peptide substrate addition and measured 1 hr after substrate addition by cell free kinase assay
[45] = biological target: T1, Tyrosine-protein kinase SYK; test: Inhibition of SYK-mediated TNFalpha production in human IgG-stimulated human THP1 cells incubated for 18 hrs by ELISA method; assay type: cell-based, THP-1
[46] = biological target: Vascular endothelial growth factor receptor 2 (Homo sapiens, UniProt P35968); test: Inhibition of KDR (unknown origin) pre-incubated for 30 mins at room temperature before substrate addition and measured 1 hr after substrate addition by cell free kinase assay

Aurora kinase B, sequence (Q96GD4 whole entry): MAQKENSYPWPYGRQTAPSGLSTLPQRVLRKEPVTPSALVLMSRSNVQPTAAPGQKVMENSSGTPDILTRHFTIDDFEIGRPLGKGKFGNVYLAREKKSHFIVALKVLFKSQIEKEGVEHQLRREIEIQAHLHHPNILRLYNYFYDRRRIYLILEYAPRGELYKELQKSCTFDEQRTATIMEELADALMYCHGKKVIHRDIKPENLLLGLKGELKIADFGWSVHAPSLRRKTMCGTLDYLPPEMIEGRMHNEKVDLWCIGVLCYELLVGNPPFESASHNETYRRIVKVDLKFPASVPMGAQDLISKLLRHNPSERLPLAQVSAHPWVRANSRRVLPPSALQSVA

IC50 (Aurora kinase B): 1710 nM | IC50 [1]: 67.8 nM | inhibition [2]: 91% | inhibition [3]: 44% | Papp A→B [4]: 2.7 ×10⁻⁶ cm/s | IC50 [5]: > 10000 nM | clearance [13]: 40.4 mL/min/kg | Vd [14]: 7.1 L/kg | half-life [15]: 4.6 h | AUC(0-t) [16]: 2090 ng·h/mL | AUC(0-t) [17]: 1940 ng·h/mL | bioavailability [18]: 46.4% | inhibition [21]: > 70% | inhibition [22]: > 70% | inhibition [23]: > 70% | inhibition [24]: > 70% | inhibition [25]: > 70% | inhibition [26]: < 25% | inhibition [27]: < 25% | inhibition [28]: < 25% | inhibition [29]: < 25% | inhibition [30]: < 25% | inhibition [31]: < 25% | inhibition [32]: < 25% | inhibition [33]: < 25% | inhibition [34]: < 25% | inhibition [35]: < 50% | inhibition [36]: < 50% | inhibition [37]: < 50% | inhibition [38]: < 50% | inhibition [39]: < 50% | inhibition [40]: > 70% | inhibition [41]: > 70% | inhibition [42]: < 50% | inhibition [43]: < 50%
Structure (SMILES): Cc1nn(-c2ccnc(Nc3ccc4c(c3)c(Cl)c(C)n4C)n2)cc1CN1CC(O)C1
IC50 [6]: 24200 nM | Activity (Salmonella typhimurium [7]): Non-toxic | Activity (Salmonella typhimurium [8]): Non-toxic | Activity (Salmonella typhimurium [9]): Non-toxic | Activity (Salmonella typhimurium [10]): Non-toxic | Activity (Escherichia coli [11]): Non-toxic | Activity (Escherichia coli [12]): Non-toxic | inhibition in vivo at 10 mg/kg (Mus musculus [19]): 30% | inhibition in vivo at 30 mg/kg (Mus musculus [20]): 50%

IC50 [44]: 1.7 nM | IC50 [45]: 56 nM | IC50 (Aurora kinase B): 985 nM | IC50 [46]: 653 nM | Papp A→B [4]: 6.2 ×10⁻⁶ cm/s | IC50 [5]: > 10000 nM
Structure (SMILES): Cc1nn(-c2ccnc(Nc3ccc4c(c3)c(C)c(C)n4C)n2)cc1CN1CC(O)C1
Activity (Salmonella typhimurium [7]): Non-toxic | Activity (Salmonella typhimurium [8]): Non-toxic | Activity (Salmonella typhimurium [9]): Non-toxic | Activity (Salmonella typhimurium [10]): Non-toxic | Activity (Escherichia coli [11]): Non-toxic | Activity (Escherichia coli [12]): Non-toxic
